According to patent US9302999B2, “Substituted triazoles as herbicides” (E. I. DU PONT DE NEMOURS AND COMPANY, priority 2012, dated 2016):

Tests used:
Type in all cases: in vivo
[1] = tested on: pigweed (Amaranthus retroflexus); assay: Test A pre-/postemergence: pigweed
In short: (§1)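 Injury is scored visually on a scale where 0 means no effect and 100 complete control, comparing treated with untreated plants after approximately ten greenhouse days. Both preemergence and postemergence applications are made at the same time.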

[2] = tested on: lambsquarters (Chenopodium album); assay: Test C pre-/postemergence: lambsquarters
In short: (§2)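 Preemergence on seeds in loam/sand, postemergence on 2–18 cm (1–4-leaf) plants in peat-based medium; compounds in non-phytotoxic solvent with surfactant. After 13–15 days in greenhouse, visual rating versus controls, 0 (no effect) to 100 (complete control).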

[3] = tested on: wheat (Triticum aestivum); assay: Test A pre-/postemergence: wheat
In short: as §1

[4] = tested on: nutsedge, yellow (yellow nutsedge, Cyperus esculentus); assay: Test C pre-/postemergence: nutsedge, yellow
In short: as §2

[5] = tested on: ryegrass, Italian (Italian ryegrass, Lolium multiflorum); assay: Test C pre-/postemergence: ryegrass, Italian
In short: as §2

[6] = tested on: barnyardgrass (Echinochloa crus-galli); assay: Test A pre-/postemergence: barnyardgrass
In short: as §1

[7] = tested on: crabgrass, large (large crabgrass, Digitaria sanguinalis); assay: Test A pre-/postemergence: crabgrass, large
In short: as §1

soybean (Glycine max) = assay: Test C pre-/postemergence: soybean
In short: as §2

[8] = tested on: winter wheat (Triticum aestivum); assay: Test C pre-/postemergence: winter wheat
In short: as §2

[9] = tested on: foxtail, giant (giant foxtail, Setaria faberii); assay: Test C pre-/postemergence: foxtail, giant
In short: as §2

corn (Zea mays) = assay: Test A pre-/postemergence: corn
In short: as §1

[10] = Postemergence, 125 g ai/ha, 0 to 100 scale, 0 is no effect, 100 is complete control
[11] = Postemergence, 500 g ai/ha, 0 to 100 scale, 0 is no effect, 100 is complete control
[12] = Preemergence, 125 g ai/ha, 0 to 100 scale where 0 is no effect and 100 is complete control
[13] = Preemergence, 500 g ai/ha, 0 to 100 scale (0 no effect, 100 complete control)
[14] = Preemergence, 16 g ai/ha, scale 0 (no effect) to 100 (complete control)
[15] = Preemergence, 31 g ai/ha, scale 0 (no effect) to 100 (complete control)
[16] = Preemergence, 62 g ai/ha, scale of 0 to 100, 0 is no effect, 100 is complete control
[17] = Preemergence, 125 g ai/ha, scale 0 to 100, 0 no effect, 100 complete control
[18] = Postemergence, 31 g ai/ha, scale 0 to 100 (0 no effect, 100 complete control)
[19] = Postemergence, 62 g ai/ha, scale 0 to 100 (0 no effect, 100 complete control)
[20] = Postemergence, 125 g ai/ha, scale 0 to 100, 0 no effect, 100 complete control
[21] = Postemergence, 250 g ai/ha, scale 0 to 100 (0 no effect, 100 complete control)
[22] = Preemergence, 250 g ai/ha, scale 0 to 100, 0 no effect, 100 complete control

Q: What does the source list for CCOc1nn(-c2ccc(Br)cc2)nc1Cc1ccnc(C(F)(F)F)c1 [Compound 189]?
A: Plant response rating, Pigweed [1, 10]: 100; Pigweed plant response rating [1, 11]: 100; Plant response rating, Pigweed [1, 12]: 100; Plant response rating, Pigweed [1, 13]: 100; Plant response rating, Lambsquarters [2, 14]: 45; Plant response rating, Lambsquarters [2, 15]: 85; Plant response rating, Lambsquarters [2, 16]: 90; Plant response rating, Lambsquarters [2, 17]: 90; Plant response rating, Wheat [3, 10]: 50; Wheat plant response rating [3, 11]: 60; Plant response rating, Wheat [3, 12]: 20; Plant response rating, Wheat [3, 13]: 50; Plant response rating, Nutsedge, Yellow [4, 14]: 0; Plant response rating, Nutsedge, Yellow [4, 15]: 0; Plant response rating, Nutsedge, Yellow [4, 16]: 0; Plant response rating, Nutsedge, Yellow [4, 17]: 0; Plant response rating, Ryegrass, Italian [5, 14]: 50; Plant response rating, Ryegrass, Italian [5, 15]: 60; Plant response rating, Ryegrass, Italian [5, 16]: 85; Plant response rating, Ryegrass, Italian [5, 17]: 100; Plant response rating, Barnyardgrass [6, 10]: 60; Barnyardgrass plant response rating [6, 11]: 80; Plant response rating, Barnyardgrass [6, 12]: 80; Plant response rating, Barnyardgrass [6, 13]: 90; Plant response rating, Crabgrass, Large [7, 10]: 80; Crabgrass, Large plant response rating [7, 11]: 90; Plant response rating, Crabgrass, Large [7, 12]: 100; Plant response rating, Crabgrass, Large [7, 13]: 100; Plant response rating, Soybean (soybean (Glycine max); [14]): 5; Plant response rating, Soybean (soybean (Glycine max); [15]): 5; Plant response rating, Soybean (soybean (Glycine max); [16]): 15; Plant response rating, Soybean (soybean (Glycine max); [17]): 25; Plant response rating, Wheat [8, 14]: 0; Plant response rating, Wheat [8, 15]: 5; Plant response rating, Wheat [8, 16]: 15; Plant response rating, Wheat [8, 17]: 30; Plant response rating, Foxtail, Giant [9, 14]: 100; Plant response rating, Foxtail, Giant [9, 15]: 100; Plant response rating, Foxtail, Giant [9, 16]: 100; Plant response rating, Foxtail, Giant [9, 17]: 100; Plant response rating, Corn (corn (Zea mays); [10]): 20; Corn plant response rating (corn (Zea mays); [11]): 40; Plant response rating, Corn (corn (Zea mays); [12]): 10; Plant response rating, Corn (corn (Zea mays); [13]): 10

Q: CCOc1nn(-c2ccc(F)cc2)nc1Cc1ccnc(C(F)F)c1 [Compound 195] was tested. Which “Plant response rating, Pigweed” value [1, 10] did it give?
A: Its value is 100.

Q: And the “Pigweed plant response rating” value [1, 11]?
A: Its value is 100.

Q: What about the “Plant response rating, Pigweed” value [1, 12] of the same compound?
A: The value was 100.

Q: What about the “Plant response rating, Pigweed” value [1, 13] of the same compound?
A: Its value is 100.

Q: What about the “Plant response rating, Lambsquarters” value [2, 18] of the same compound?
A: Its value is 95.

Q: What about the “Plant response rating, Lambsquarters” value [2, 19] of the same compound?
A: Its value is 95.

Q: And the “Plant response rating, Lambsquarters” value [2, 20]?
A: The value was 95.

Q: And the “Plant response rating, Lambsquarters” value [2, 21]?
A: Its value is 95.

Q: What about the “Plant response rating, Lambsquarters” value [2, 15] of the same compound?
A: The value was 55.

Q: And the “Plant response rating, Lambsquarters” value [2, 16]?
A: Its value is 80.

Q: And the “Plant response rating, Lambsquarters” value [2, 17]?
A: Its value is 90.

Q: And the “Plant response rating, Lambsquarters” value [2, 22]?
A: The value was 95.

Q: And the “Plant response rating, Wheat” value [3, 10]?
A: The value was 30.

Q: What about the “Wheat plant response rating” value [3, 11] of the same compound?
A: Its value is 30.

Q: What about the “Plant response rating, Wheat” value [3, 12] of the same compound?
A: Its value is 20.

Q: And the “Plant response rating, Wheat” value [3, 13]?
A: The value was 50.

Q: And the “Plant response rating, Nutsedge, Yellow” value [4, 18]?
A: Its value is 10.

Q: What about the “Plant response rating, Nutsedge, Yellow” value [4, 19] of the same compound?
A: Its value is 20.

Q: What about the “Plant response rating, Nutsedge, Yellow” value [4, 20] of the same compound?
A: The value was 25.

Q: And the “Plant response rating, Nutsedge, Yellow” value [4, 21]?
A: The value was 25.

Q: And the “Plant response rating, Nutsedge, Yellow” value [4, 15]?
A: The value was 0.

Q: And the “Plant response rating, Nutsedge, Yellow” value [4, 16]?
A: The value was 0.

Q: What about the “Plant response rating, Nutsedge, Yellow” value [4, 17] of the same compound?
A: The value was 5.

Q: And the “Plant response rating, Nutsedge, Yellow” value [4, 22]?
A: Its value is 80.

Q: What about the “Plant response rating, Ryegrass, Italian” value [5, 18] of the same compound?
A: The value was 25.

Q: What about the “Plant response rating, Ryegrass, Italian” value [5, 19] of the same compound?
A: The value was 55.

Q: What about the “Plant response rating, Ryegrass, Italian” value [5, 20] of the same compound?
A: The value was 60.

Q: What about the “Plant response rating, Ryegrass, Italian” value [5, 21] of the same compound?
A: Its value is 60.

Q: And the “Plant response rating, Ryegrass, Italian” value [5, 15]?
A: Its value is 50.

Q: What about the “Plant response rating, Ryegrass, Italian” value [5, 16] of the same compound?
A: The value was 80.

Q: What about the “Plant response rating, Ryegrass, Italian” value [5, 17] of the same compound?
A: Its value is 90.

Q: What about the “Plant response rating, Ryegrass, Italian” value [5, 22] of the same compound?
A: Its value is 90.

Q: And the “Plant response rating, Barnyardgrass” value [6, 10]?
A: The value was 90.

Q: What about the “Barnyardgrass plant response rating” value [6, 11] of the same compound?
A: The value was 90.

Q: And the “Plant response rating, Barnyardgrass” value [6, 12]?
A: Its value is 90.

Q: And the “Plant response rating, Barnyardgrass” value [6, 13]?
A: The value was 100.

Q: And the “Plant response rating, Crabgrass, Large” value [7, 10]?
A: The value was 90.

Q: What about the “Crabgrass, Large plant response rating” value [7, 11] of the same compound?
A: The value was 90.

Q: What about the “Plant response rating, Crabgrass, Large” value [7, 12] of the same compound?
A: Its value is 100.

Q: What about the “Plant response rating, Crabgrass, Large” value [7, 13] of the same compound?
A: Its value is 100.

Q: What about the “Plant response rating, Soybean” value (soybean (Glycine max); [18]) of the same compound?
A: The value was 40.

Q: And the “Plant response rating, Soybean” value (soybean (Glycine max); [19])?
A: Its value is 40.

Q: What about the “Plant response rating, Soybean” value (soybean (Glycine max); [20]) of the same compound?
A: Its value is 65.

Q: And the “Plant response rating, Soybean” value (soybean (Glycine max); [21])?
A: Its value is 65.

Q: What about the “Plant response rating, Soybean” value (soybean (Glycine max); [15]) of the same compound?
A: Its value is 0.

Q: And the “Plant response rating, Soybean” value (soybean (Glycine max); [16])?
A: The value was 0.

Q: What about the “Plant response rating, Soybean” value (soybean (Glycine max); [17]) of the same compound?
A: Its value is 0.

Q: And the “Plant response rating, Soybean” value (soybean (Glycine max); [22])?
A: The value was 25.

Q: And the “Plant response rating, Wheat” value [8, 18]?
A: The value was 10.

Q: What about the “Plant response rating, Wheat” value [8, 19] of the same compound?
A: The value was 20.

Q: What about the “Plant response rating, Wheat” value [8, 20] of the same compound?
A: The value was 25.

Q: And the “Plant response rating, Wheat” value [8, 21]?
A: Its value is 30.

Q: What about the “Plant response rating, Wheat” value [8, 15] of the same compound?
A: Its value is 0.

Q: And the “Plant response rating, Wheat” value [8, 16]?
A: Its value is 5.

Q: And the “Plant response rating, Wheat” value [8, 17]?
A: Its value is 5.

Q: What about the “Plant response rating, Wheat” value [8, 22] of the same compound?
A: The value was 30.

Q: And the “Plant response rating, Foxtail, Giant” value [9, 18]?
A: The value was 35.

Q: What about the “Plant response rating, Foxtail, Giant” value [9, 19] of the same compound?
A: Its value is 35.

Q: What about the “Plant response rating, Foxtail, Giant” value [9, 20] of the same compound?
A: Its value is 75.

Q: And the “Plant response rating, Foxtail, Giant” value ([9]; Postemergence, 250 g ai/ha, scale 0 to 100)?
A: Its value is 90.

Q: What about the “Plant response rating, Foxtail, Giant” value [9, 15] of the same compound?
A: The value was 98.

Q: And the “Plant response rating, Foxtail, Giant” value [9, 16]?
A: Its value is 98.

Q: And the “Plant response rating, Foxtail, Giant” value [9, 17]?
A: The value was 100.

Q: What about the “Plant response rating, Foxtail, Giant” value [9, 22] of the same compound?
A: Its value is 100.

Q: And the “Plant response rating, Corn” value (corn (Zea mays); [10])?
A: Its value is 30.

Q: What about the “Corn plant response rating” value (corn (Zea mays); [11]) of the same compound?
A: The value was 60.

Q: What about the “Plant response rating, Corn” value (corn (Zea mays); [12]) of the same compound?
A: Its value is 20.

Q: And the “Plant response rating, Corn” value (corn (Zea mays); [13])?
A: Its value is 30.
